Measured values from patent publication US6737383B1, “Herbicidal oxadiazolidines” (priority 1999, dated 2004).

How the values were obtained:
rice = assay: Test B flood test rice; type: in vivo, Oryza sativa; conditions: for Plant response rating, Rice (0 to 10 scale, 0 is no effect, 10 is complete control): Rate 62 g/ha
Method in brief: (§1)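 Read-out is a visual response score from 0 (no effect) to 10 (complete control), assigned by comparison with untreated controls. Treatment was applied at the 2-leaf stage, and plants stayed in the greenhouse for twelve to sixteen days before scoring.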

smallflower flatsedge = assay: Test B flood test smallflower flatsedge; type: in vivo, Cyperus difformis; conditions: for Plant response rating, S. Flatsedge (0 to 10 scale, 0 is no effect, 10 is complete control): Rate 62 g/ha
Method in brief: as §1

duck salad = assay: Test B flood test duck salad; type: in vivo, Heteranthera limosa; conditions: for Plant response rating, Ducksalad (0 to 10 scale, 0 is no effect, 10 is complete control): Rate 62 g/ha
Method in brief: as §1

bamyardgrass = assay: Test B flood test barnyardgrass; type: in vivo, Echinochloa crus-galli; conditions: for Plant response rating, Barnyardgrass (0 to 10 scale, 0 is no effect, 10 is complete control): Rate 62 g/ha
Method in brief: as §1

blackgrass = assay: Test B pre/postemergence blackgrass; type: in vivo, Alopecurus myosuroides
Method in brief: (§2)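 Test chemicals in a non-phytotoxic solvent mixture with surfactant were sprayed preemergence onto planted seeds and postemergence onto plants 2 to 18 cm tall (1- to 4-leaf stage). After twelve to sixteen days in a greenhouse, injury was visually rated against untreated controls from 0 (no effect) to 10 (complete control).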

surinam grass = assay: Test B pre/postemergence surinam grass; type: in vivo, Brachiaria decumbens
Method in brief: as §2

cocklebur = assay: Test B pre/postemergence cocklebur; type: in vivo, Xanthium strumarium
Method in brief: as §2

corn = assay: Test B pre/postemergence corn; type: in vivo, Zea mays
Method in brief: as §2

crabgrass = assay: Test B pre/postemergence crabgrass; type: in vivo, Digitaria sanguinalis
Method in brief: as §2

giant foxtail = assay: Test B pre/postemergence giant foxtail; type: in vivo, Setaria faberii
Method in brief: as §2

morningglory = assay: Test B pre/postemergence morningglory; type: in vivo, Ipomoea hederacea
Method in brief: as §2

pigweed = assay: Test B pre/postemergence pigweed; type: in vivo, Amaranthus retroflexus
Method in brief: as §2

rape = assay: Test B pre/postemergence rape; type: in vivo, Brassica napus
Method in brief: as §2

soybean = assay: Test B pre/postemergence soybean; type: in vivo, Glycine max
Method in brief: as §2

sugar beet = assay: Test B pre/postemergence sugar beet; type: in vivo, Beta vulgaris
Method in brief: as §2

velvetleaf = assay: Test B pre/postemergence velvetleaf; type: in vivo, Abutilon theophrasti
Method in brief: as §2

wheat = assay: Test B pre/postemergence wheat; type: in vivo, Triticum aestivum
Method in brief: as §2

wild oat = assay: Test B pre/postemergence wild oat; type: in vivo, Avena fatua
Method in brief: as §2

purple nutsedge = assay: Test B pre/postemergence purple nutsedge; type: in vivo, Cyperus rotundus
Method in brief: as §2

[1] = flood test species, Pre-emergence, visual evaluation after twelve to sixteen days
[2] = Rate 125 g/ha, Pre-emergence, flood test species, scale 0 to 10 where 0 is no effect and 10 is complete control
[3] = Rate 250 g/ha, Pre-emergence, flood-test species, scale 0 to 10, 0 is no effect, 10 is complete control
[4] = Rate 500 g/ha, Pre-emergence, flood test species, scale 0 to 10 (0 no effect, 10 complete control)
[5] = Postemergence, Rate 125 g/ha, scale 0 to 10, 0 is no effect, 10 is complete control
[6] = Postemergence, Rate 500 g/ha, scale 0 to 10, 0 is no effect, 10 is complete control
[7] = Preemergence, Rate 62 g/ha, scale of 0 to 10 where 0 is no effect and 10 is complete control
[8] = Preemergence, Rate 125 g/ha, scale 0 to 10, 0 is no effect, 10 is complete control
[9] = Preemergence, Rate 250 g/ha, scale 0 to 10, 0 is no effect, 10 is complete control
[10] = Preemergence, Rate 500 g/ha, scale of 0 to 10 where 0 is no effect and 10 is complete control
[11] = Rate 62 g/ha, Postemergence, scale 0 to 10, 0 no effect, 10 complete control
[12] = Postemergence, Rate 250 g/ha, scale 0 to 10
[13] = Rate 125 g/ha, under heading Pre-emergence, flood test species, visual evaluation after twelve to sixteen days
[14] = Rate 250 g/ha, Pre-emergence (flood test species), scale 0 to 10, 0 is no effect, 10 is complete control
[15] = Rate 500 g/ha, Pre-emergence section of Table B, 0 to 10 scale (0 no effect, 10 complete control)

Compound: CC(C)N(C(=O)n1oc(=O)n(Cc2cccnc2)c1=O)c1ccc(F)cc1 [Compound 366]
- Plant response rating, Rice (0 to 10 scale, 0 is no effect, 10 is complete control) (rice; [1]): 0
- Rice plant response rating (rice; [2]): 0
- Rice plant response rating (rice; [3]): 0
- Rice plant response rating (rice; [4]): 0
- Plant response rating, S. Flatsedge (0 to 10 scale, 0 is no effect, 10 is complete control) (smallflower flatsedge; [1]): 0
- S. Flatsedge plant response rating (smallflower flatsedge; [2]): 0
- S. Flatsedge plant response rating (smallflower flatsedge; [3]): 0
- S. Flatsedge plant response rating (smallflower flatsedge; [4]): 0
- Plant response rating, Ducksalad (0 to 10 scale, 0 is no effect, 10 is complete control) (duck salad; [1]): 0
- Ducksalad plant response rating (duck salad; [2]): 0
- Ducksalad plant response rating (duck salad; [3]): 0
- Ducksalad plant response rating (duck salad; [4]): 0
- Plant response rating, Barnyardgrass (0 to 10 scale, 0 is no effect, 10 is complete control) (bamyardgrass; [1]): 0
- Barnyardgrass plant response rating (bamyardgrass; [2]): 0
- Barnyardgrass plant response rating (bamyardgrass; [3]): 0
- Barnyardgrass plant response rating (bamyardgrass; [4]): 0

Compound: C=C(Cn1c(=O)on(C(=O)N(c2ccccc2)C(C)C)c1=O)c1cccnc1 [Compound 498]
- Blackgrass plant response rating (blackgrass; [5]): 0
- Plant response rating, Blackgrass (blackgrass; [6]): 5
- Plant response rating, Blackgrass (blackgrass; [7]): 0
- Blackgrass plant response rating (blackgrass; [8]): 0
- Blackgrass plant response rating (blackgrass; [9]): 0
- Blackgrass plant response rating (blackgrass; [10]): 0
- Blackgrass plant response rating (blackgrass; [11]): 0
- B. signalgrass plant response rating (surinam grass; [5]): 0
- B. signalgrass plant response rating (surinam grass; Postemergence, Rate 250 g/ha, scale 0 to 10, 0 no effect, 10 complete control): 0
- Plant response rating, B. signalgrass (surinam grass; [6]): 0
- Plant response rating, B. signalgrass (surinam grass; [7]): 0
- B. signalgrass plant response rating (surinam grass; [8]): 0
- B. signalgrass plant response rating (surinam grass; [9]): 0
- B. signalgrass plant response rating (surinam grass; Preemergence, Rate 500 g/ha, scale 0 to 10, 0 is no effect, 10 is complete control): 0
- B. signalgrass plant response rating (surinam grass; [11]): 0
- Cocklebur plant response rating (cocklebur; [5]): 0
- Cocklebur plant response rating (cocklebur; [12]): 0
- Plant response rating, Cocklebur (cocklebur; [6]): 0
- Plant response rating, Cocklebur (cocklebur; [7]): 0
- Cocklebur plant response rating (cocklebur; [8]): 0
- Cocklebur plant response rating (cocklebur; [9]): 0
- Cocklebur plant response rating (cocklebur; [10]): 0
- Cocklebur plant response rating (cocklebur; [11]): 0
- Corn plant response rating (corn; [5]): 0
- Corn plant response rating (corn; [12]): 0
- Plant response rating, Corn (corn; [6]): 0
- Plant response rating, Corn (corn; [7]): 0
- Corn plant response rating (corn; [8]): 0
- Corn plant response rating (corn; [10]): 0
- Corn plant response rating (corn; [11]): 0
- Crabgrass plant response rating (crabgrass; [12]): 0
- Plant response rating, Crabgrass (crabgrass; [6]): 2
- Plant response rating, Crabgrass (crabgrass; [7]): 0
- Crabgrass plant response rating (crabgrass; [8]): 2
- Crabgrass plant response rating (crabgrass; [10]): 5
- Crabgrass plant response rating (crabgrass; [11]): 0
- Giant foxtail plant response rating (giant foxtail; [5]): 2
- Plant response rating, Giant foxtail (giant foxtail; [6]): 3
- Plant response rating, Giant foxtail (giant foxtail; [7]): 0
- Giant foxtail plant response rating (giant foxtail; [8]): 2
- Giant foxtail plant response rating (giant foxtail; [10]): 8
- Giant foxtail plant response rating (giant foxtail; [11]): 0
- Morningglory plant response rating (morningglory; [5]): 3
- Plant response rating, Morningglory (morningglory; [6]): 4
- Plant response rating, Morningglory (morningglory; [7]): 0
- Morningglory plant response rating (morningglory; [8]): 0
- Morningglory plant response rating (morningglory; [10]): 0
- Morningglory plant response rating (morningglory; [11]): 1
- Redroot pigweed plant response rating (pigweed; [5]): 0
- Plant response rating, Redroot pigweed (pigweed; [6]): 0
- Plant response rating, Redroot pigweed (pigweed; [7]): 0
- Redroot pigweed plant response rating (pigweed; [8]): 0
- Redroot pigweed plant response rating (pigweed; [10]): 0
- Redroot pigweed plant response rating (pigweed; [11]): 0
- Rape plant response rating (rape; [5]): 0
- Plant response rating, Rape (rape; [6]): 0
- Plant response rating, Rape (rape; [7]): 0
- Rape plant response rating (rape; [8]): 0
- Rape plant response rating (rape; [10]): 0
- Rape plant response rating (rape; [11]): 0
- Soybean plant response rating (soybean; [5]): 1
- Plant response rating, Soybean (soybean; [6]): 1
- Plant response rating, Soybean (soybean; [7]): 0
- Soybean plant response rating (soybean; [8]): 0
- Soybean plant response rating (soybean; [10]): 0
- Soybean plant response rating (soybean; [11]): 1
- Sugarbeets plant response rating (sugar beet; [5]): 0
- Plant response rating, Sugarbeets (sugar beet; [6]): 0
- Plant response rating, Sugarbeets (sugar beet; [7]): 0
- Sugarbeets plant response rating (sugar beet; [8]): 0
- Sugarbeets plant response rating (sugar beet; [10]): 0
- Sugarbeets plant response rating (sugar beet; [11]): 0
- Velvetleaf plant response rating (velvetleaf; [5]): 0
- Plant response rating, Velvetleaf (velvetleaf; [6]): 2
- Plant response rating, Velvetleaf (velvetleaf; [7]): 0
- Velvetleaf plant response rating (velvetleaf; [8]): 0
- Velvetleaf plant response rating (velvetleaf; [10]): 0
- Velvetleaf plant response rating (velvetleaf; [11]): 0
- Wheat plant response rating (wheat; [5]): 0
- Plant response rating, Wheat (wheat; [6]): 0
- Plant response rating, Wheat (wheat; [7]): 0
- Wheat plant response rating (wheat; [8]): 0
- Wheat plant response rating (wheat; [10]): 0
- Wheat plant response rating (wheat; [11]): 0
- Wild oats plant response rating (wild oat; [5]): 0
- Plant response rating, Wild oats (wild oat; [6]): 0
- Plant response rating, Wild oats (wild oat; [7]): 0
- Wild oats plant response rating (wild oat; [8]): 0
- Wild oats plant response rating (wild oat; [10]): 0
- Wild oats plant response rating (wild oat; [11]): 0
- Nutsedge plant response rating (purple nutsedge; [5]): 0
- Plant response rating, Nutsedge (purple nutsedge; [6]): 0
- Plant response rating, Nutsedge (purple nutsedge; [7]): 0
- Nutsedge plant response rating (purple nutsedge; [8]): 0
- Nutsedge plant response rating (purple nutsedge; [10]): 0
- Nutsedge plant response rating (purple nutsedge; [11]): 0
- Plant response rating, Rice (0 to 10 scale, 0 is no effect, 10 is complete control) (rice; [1]): 0
- Rice plant response rating (0 to 10 scale, 0 is no effect, 10 is complete control) (rice; [13]): 0
- Rice plant response rating (rice; [14]): 0
- Rice plant response rating (rice; [15]): 0
- Plant response rating, S. Flatsedge (0 to 10 scale, 0 is no effect, 10 is complete control) (smallflower flatsedge; [1]): 0
- S. Flatsedge plant response rating (0 to 10 scale, 0 is no effect, 10 is complete control) (smallflower flatsedge; [13]): 0
- S. Flatsedge plant response rating (smallflower flatsedge; [14]): 0
- S. Flatsedge plant response rating (smallflower flatsedge; [15]): 0
- Plant response rating, Ducksalad (0 to 10 scale, 0 is no effect, 10 is complete control) (duck salad; [1]): 0
- Ducksalad plant response rating (0 to 10 scale, 0 is no effect, 10 is complete control) (duck salad; [13]): 0
- Ducksalad plant response rating (duck salad; [14]): 0
- Ducksalad plant response rating (duck salad; [15]): 0
- Plant response rating, Barnyardgrass (0 to 10 scale, 0 is no effect, 10 is complete control) (bamyardgrass; [1]): 0
- Barnyardgrass plant response rating (0 to 10 scale, 0 is no effect, 10 is complete control) (bamyardgrass; [13]): 0
- Barnyardgrass plant response rating (bamyardgrass; [14]): 0
- Barnyardgrass plant response rating (bamyardgrass; [15]): 0
